The values below are quoted from earlier work in patent US20040210280A1, “Plaster-type chip systems for thermodynamic control of topical dermal and transdermal systems” (BIONICS PHARMA GmbH, priority 2002, published 2004).

The conditions of data set [1]: in vivo.
For data set [2] the following is noted: in vivo. This is another data set of the same source.

On to “125I-labelled insulin: previously injected 125I-labelled insulin”, for which the “rate of disappearance from the subcutaneous tissue” value in data set [1] is “increased rate of disappearance”. Take `O=[N+]([O-])OCC(CO[N+](=O)[O-])O[N+](=O)[O-]` [nitroglycerine]: in data set [2], the “concentrations of nitroglycerine in the plasma” value is given as “increased by two to three times” and the “plasma concentrations of nitroglycerine” value is given as “decrease”.
